Earlier results, collected in US5348946A, “Heteroanthracycline antitumor analogs” (Biochem Immunosystems, Inc., priority 1991, dated 1994).

Settings: compared with daunorubicin and doxorubicin; cited from earlier work

SMILES | antileukemic activity
CC(=O)[C@]1(O)Cc2c(c(O)c3oc4ccccc4c(=O)c3c2O)[C@@H](O[C@H]2C[C@H](NC(=O)C(F)(F)F)[C@H](O)[C@H](C)O2)C1 [Compound 5] | antileukemic activity, but lower than that of the parent antibiotics daunorubicin and doxorubicin
CC(=O)[C@@H]1Cc2c(c(O)c3oc4ccccc4c(=O)c3c2O)[C@@H](O[C@H]2C[C@H](N)[C@H](O)[C@H](C)O2)C1 [Compound 3] | antileukemic activity, but lower than that of the parent antibiotics daunorubicin and doxorubicin
CC(=O)[C@]1(O)Cc2c(c(O)c3oc4ccccc4c(=O)c3c2O)[C@@H](O[C@H]2C[C@H](N)[C@H](O)[C@H](C)O2)C1 [Compound 4] | antileukemic activity, but lower than that of the parent antibiotics daunorubicin and doxorubicin
